Data published in patent publication US8183248B2, “Substituted pyrrolo[2,3-d]pyrimidines and compositions as protein kinase inhibitors” (IRM LLC, priority 2005, dated 2012).
pIC50: −log10 of the molar value.

Columns and labels:
PDGFR-β = target: T1, PDGFR-β (Homo sapiens, UniProt P09619); assay: PDGFRβ (Cellular Assay), Ba/F3-Tel-PDGFRβ proliferation; type: cell-based; details: read-out: IC50 for PDGFR-β
T1 construct: fused on or other part: P41212 (Transcription factor ETV6)

[1] = target: T2, E255V Bcr-abl (Ba/F3 cells) (Homo sapiens, UniProt P00519, E255V); assay: Proliferation of Ba/F3 cells expressing E255V Bcr-abl; type: cell-based
T2 construct: expressed in transfected cells; host or cells: Ba/F3 (murine pro-B cells); the other entry of the earlier key: BCR (P11274, Breakpoint cluster region protein)
Procedure: (§1) 32D-p210 cells are plated into 96 well TC plates at a density of 15,000 cells per well. 50 μL of two fold serial dilutions of the test compound (Cmax is 40 μM) are added to each well (STI571 is included as a positive control). After incubating the cells for 48 hours at 37° C., 5% CO2, 15 μL of MTT (Promega) is added to each well and the cells are incubated for an additional 5 hours. The optical density at 570 nm is quantified spectrophotometrically and IC50 values, the concentration of compound required for 50% inhibition, determined from a dose response curve.
(§2) Compounds of the invention are tested for their antiproliferative effect on Ba/F3 cells expressing either wild type or the mutant forms of BCR-Abl (G250E, E255V, T315I, F317L, M351T) that confers resistance or diminished sensitivity to STI571. The antiproliferative effect of these compounds on the mutant-BCR-Abl expressing cells and on the non transformed cells were tested at 10, 3.3, 1.1 and 0.37 μM as described above (in media lacking IL3). The IC50 values of the compounds lacking toxicity on the untransformed cells were determined from the dose response curves obtained as describe above.

[2] = target: T3, F317L Bcr-abl (Ba/F3 cells) (Homo sapiens, UniProt P00519, F317L); assay: Proliferation of Ba/F3 cells expressing F317L Bcr-abl; type: cell-based
T3 construct: expressed in transfected cells; host or cells: Ba/F3 (murine pro-B cells); the other entry of the earlier key: BCR (P11274, Breakpoint cluster region protein)
Procedure: as §1, §2

FGFR3 = target: T4, FGFR3 (Homo sapiens, UniProt P22607); assay: FGFR3 (Enzymatic Assay); type: biochemical
T4 construct: if the value comes from the Ba/F3-TEL-FGFR3 test; If it comes from the purified enzyme, only the vendor's tag
T4 sequence (P22607 whole entry): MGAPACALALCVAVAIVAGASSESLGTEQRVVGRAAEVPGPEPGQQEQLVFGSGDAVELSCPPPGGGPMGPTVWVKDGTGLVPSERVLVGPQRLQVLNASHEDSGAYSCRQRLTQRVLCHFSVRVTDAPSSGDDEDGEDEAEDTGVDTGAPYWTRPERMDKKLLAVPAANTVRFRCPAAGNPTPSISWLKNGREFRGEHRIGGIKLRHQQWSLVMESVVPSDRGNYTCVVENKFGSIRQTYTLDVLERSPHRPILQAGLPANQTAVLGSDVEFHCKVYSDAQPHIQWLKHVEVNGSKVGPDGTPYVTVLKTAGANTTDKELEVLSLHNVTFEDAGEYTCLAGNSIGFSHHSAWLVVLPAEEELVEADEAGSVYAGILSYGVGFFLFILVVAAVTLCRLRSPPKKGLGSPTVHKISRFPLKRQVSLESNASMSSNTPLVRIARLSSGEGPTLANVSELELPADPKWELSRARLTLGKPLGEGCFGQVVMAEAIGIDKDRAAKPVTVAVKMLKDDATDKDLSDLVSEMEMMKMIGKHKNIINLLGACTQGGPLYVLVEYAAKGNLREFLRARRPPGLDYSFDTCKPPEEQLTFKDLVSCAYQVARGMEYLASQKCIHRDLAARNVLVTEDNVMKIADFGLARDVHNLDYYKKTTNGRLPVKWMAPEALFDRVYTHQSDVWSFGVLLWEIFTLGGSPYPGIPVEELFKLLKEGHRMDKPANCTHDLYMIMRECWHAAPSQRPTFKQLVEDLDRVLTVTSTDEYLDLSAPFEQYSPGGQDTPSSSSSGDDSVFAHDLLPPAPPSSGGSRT
Procedure: Kinase activity assay with purified FGFR3 (Upstate) is carried out in a final volume of 10 μL containing 0.25 μg/mL of enzyme in kinase buffer (30 mM Tris-HCl pH7.5, 15 mM MgCl2, 4.5 mM MnCl2, 15 μM Na3VO4 and 50 μg/mL BSA), and substrates (5 μg/mL biotin-poly-EY(Glu, Tyr) (CIS-US, Inc.) and 3 μM ATP). Two solutions are made: the first solution of 5 μl contains the FGFR3 enzyme in kinase buffer was first dispensed into 384-format ProxiPlate® (Perkin-Elmer) followed by adding […] of compounds dissolved in DMSO, then […] of second solution contains the substrate (poly-EY) and ATP in kinase buffer was added to each wells. The reactions are incubated at room temperature for one hour, stopped by adding 10 μL of HTRF detection mixture, which contains 30 mM Tris-HCl pH7.5, 0.5 M KF, 50 mM ETDA, 0.2 mg/mL BSA, 15 μg/mL streptavidin-XL665 (CIS-US, Inc.) and 150 ng/mL cryptate conjugated anti-phosphotyrosine antibody (CIS-US, Inc.). After one hour of room temperature incubation to allow for streptavidin-biotin interaction, time resolved florescent signals are read on Analyst GT (Molecular Devices Corp.). IC50 values are calculated by […] analysis of the percentage inhibition of each compound at 12 concentrations (1:3 dilution from 50 μM to 0.28 nM).

[3] = target: T5, wild type Bcr-abl (Ba/F3 cells) (Homo sapiens, UniProt P00519); assay: Proliferation of Ba/F3 cells expressing wild type Bcr-abl; type: cell-based
T5 construct: expressed in transfected cells; host or cells: Ba/F3 (murine pro-B cells); the other entry of the earlier key: BCR (P11274, Breakpoint cluster region protein)
Procedure: as §1, §2

FLT-3 = FLT-3 (Homo sapiens, UniProt P36888, cells depend on it, form not given); assay: FLT3 (Cellular Assay), Ba/F3-FLT3-ITD proliferation; type: cell-based; details: read-out: IC50 for FLT-3
[4] = target: T6, M351T Bcr-abl (Ba/F3 cells) (Homo sapiens, UniProt P00519, M351T); assay: Proliferation of Ba/F3 cells expressing M351T Bcr-abl; type: cell-based
T6 construct: expressed in transfected cells; host or cells: Ba/F3 (murine pro-B cells); the other entry of the earlier key: BCR (P11274, Breakpoint cluster region protein)
Procedure: as §1, §2

[5] = target: T7, T315I Bcr-abl (Ba/F3 cells) (Homo sapiens, UniProt P00519, T315I); assay: Proliferation of Ba/F3 cells expressing T315I Bcr-abl; type: cell-based
T7 construct: expressed in transfected cells; host or cells: Ba/F3 (murine pro-B cells); the other entry of the earlier key: BCR (P11274, Breakpoint cluster region protein)
Procedure: as §1, §2

T1 sequence (P09619 600-962 limits assumed, change not shown): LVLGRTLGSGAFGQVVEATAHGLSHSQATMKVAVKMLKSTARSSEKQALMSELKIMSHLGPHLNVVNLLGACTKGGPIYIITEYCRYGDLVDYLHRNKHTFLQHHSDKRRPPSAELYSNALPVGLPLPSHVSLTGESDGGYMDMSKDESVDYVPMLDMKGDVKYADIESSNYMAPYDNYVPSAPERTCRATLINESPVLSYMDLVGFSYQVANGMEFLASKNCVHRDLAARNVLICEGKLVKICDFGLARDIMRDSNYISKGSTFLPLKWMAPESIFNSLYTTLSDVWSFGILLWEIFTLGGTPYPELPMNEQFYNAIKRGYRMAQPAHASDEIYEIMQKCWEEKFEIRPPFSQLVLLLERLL

For `CCN1CCN(Cc2ccc(NC(=O)c3ccc(C)c(NC(=O)N(C)c4ncnc5[nH]ccc45)c3)cc2C(F)(F)F)CC1` [Example 4, N-[4-(4-Ethyl-piperazin-1-ylmethyl)-3-trifluoromethyl-phenyl]-4-methyl-3-[3-methyl-3-(7H-pyrrolo[2,3-d]pyrimidin-4-yl)-ureido]-benzamide], the GI50 (PDGFR-β) was 3.8 nM, the pIC50 [1] was > 8.30 and the pIC50 [2] was > 8.30. For the same compound, the pIC50 (FGFR3) was 7.44, the pIC50 [3] was > 8.30 and the GI50 (FLT-3) was 15 nM. For the same compound, the pIC50 [4] was > 8.30 and the pIC50 [5] was > 8.30.
